Structures can show the parent of a compound that is named as a salt.
Assays:
[1] = target: T1, 5-HT1 receptor (Canis lupus familiaris, UniProt P79250); experiment: Contraction of the vena saphena isolated from dogs; parameters: species or system dog; details: % of maximum effect induced by KCl, after phenoxybenzamine, cumulative doses 10^-9 to 10^-4 M, read-out: 50% effective concentration (EC50)
T1 construct: The venae saphenae are rapidly removed and cut into rings; from tissue; host or cells: dog saphenous vein rings
T1 sequence (P79250 whole entry): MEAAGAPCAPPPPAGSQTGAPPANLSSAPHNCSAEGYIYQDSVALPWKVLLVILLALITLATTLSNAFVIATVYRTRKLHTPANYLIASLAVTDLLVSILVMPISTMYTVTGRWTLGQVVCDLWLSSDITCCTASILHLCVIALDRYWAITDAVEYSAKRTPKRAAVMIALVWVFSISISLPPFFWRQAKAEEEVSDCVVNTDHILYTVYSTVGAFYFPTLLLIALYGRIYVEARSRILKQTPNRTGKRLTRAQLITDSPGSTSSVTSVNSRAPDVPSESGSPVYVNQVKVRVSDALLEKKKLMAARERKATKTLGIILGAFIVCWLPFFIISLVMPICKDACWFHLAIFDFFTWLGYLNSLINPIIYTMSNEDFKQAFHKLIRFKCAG
Description: (§1) Contraction of the vena saphena
(§2) Experiments are carried out on venae saphenae of dogs (10-25kg) or rabbits (2-3 kg) anesthetized with pentobarbital (30 mg/kg i.v.). The venae saphenae are rapidly removed and cut into rings. These rings are mounted between two hooks in tanks thermostatically controlled at 37° C. containing physiological solution (composition in mM: NaCl118.3; KCl 4.7; CaCl2 2.5; MgSO4 1.2; KH2 PO4 1.2; NaHCO3 25.0; Ca-EDTA 0.026 and glucose 11.1). A mixture of 95% O2 /5% CO2 is bubbled through the physiological solution. The lower hook constitutes the fixed point whereas the upper hook is connected to an isometric force sensor. The tissues are put under a base tension of 1.5 grams (dogs) and 1 gram (rabbits). The pharmacological substances studied are prepared immediately before use; they are dissolved in water or in dimethyl sulfoxide.
(§3) After mounting, the preparations are left standing for 60 minutes, rinsings being carried out every 30 minutes. The organ is then brought into contact with phenoxybenzamine (5×10^-8 M) for 20 minutes. This agent is removed by several successive washings over 45 minutes. After readjusting the base tension, a contraction is caused by KCl (100 mM).

[2] = target: 5-HT1 receptor; experiment: Contraction of the vena saphena isolated from rabbits; parameters: species or system rabbit; details: % of maximum effect induced by KCl, after phenoxybenzamine, cumulative doses 10^-9 to 10^-4 M, read-out: 50% effective concentration (EC50)
Description: as §1, §2, §3

Work on `CCCN1CCC(Cc2c[nH]c3ccc(C(N)=O)cc23)C1` (centres unmarked) [Example 17, 3-[(1-Propylpyrrolidin-3-yl)methyl]-5-aminocarbonylindole, oxalate] yielded an EC50 [1] of 340 nM and an EC50 [2] of 410 nM.
